For orientation: melting point means the temperature of the solid-liquid transition.

The structures appear in SMILES notation.

Drawing on a melting point compilation (Tetko et al.), this text covers melting point for 122 compounds.

The compound `O=C(CCl)NCCCc1ccccc1` gave a melting point of 76 to 79 °C.

For `COc1ccccc1-c1nnc(SCC(=O)O)n1N`, the melting point was in the range of 181 to 183 °C. `CC(O)c1ccccc1-c1ccccc1` (configuration not stated) showed a melting point of 104 to 106 °C. With `COC(=O)Cn1ncc2c(Cl)ncnc21`, the melting point was 66 to 68 °C. In turn, `OCc1ccc(Oc2ccc(Br)cc2)c(F)c1` registered a melting point of 68 to 70 °C. The result for `O=C(NCCO)c1cncc(Br)c1` reads 128 to 130 °C; that for `NC(=NO)c1ccc(COc2ccccc2F)cc1`, 135 to 137 °C.

Compound `Cn1cc(C=O)c(-c2cccnc2)n1` had a melting point of 86 to 88 °C.

`NC(c1nnn[nH]1)C1CC1` (configuration not stated) returned a melting point of 233 to 235 °C. In the case of `N#Cc1csc(C=O)c1` it was 84 to 86 °C; in that of `NS(=O)(=O)c1ccc2c(c1)CCCO2`, 145 to 147 °C. In the case of `Cc1nc(C=O)c2ccccn12` it was 115 to 117 °C. In the case of `O=C(O)CC=Cc1cccc(F)c1` it was 64 to 66 °C. With `CC1=NN(C)C(=O)C1`, the melting point fell in the range of 109 to 111 °C.

As for `COc1cc(NC(=O)CCl)cc(OC)c1OC`, the melting point was in the range of 104 to 106 °C.

For `Cc1ccc(NC(=O)CCl)c(Br)c1`, the melting point was in the range of 169 to 171 °C.

With `O=C(CCl)NCc1ccccc1COc1ccccc1`, the melting point fell in the range of 100 to 102 °C. For `CCOC(=O)c1sc2nc(Cl)cc(C)c2c1C`, the melting point is 125 to 127 °C. In the case of `Cc1cc(CC#N)no1` it was 36 to 38 °C.

Take `O=C(O)c1cc(F)ccc1-n1ccnc1`: the melting point was in the range of 229 to 231 °C.

For the compound `Cc1nc2cc(F)cc(C(=O)O)c2nc1C`, the melting point lay in the range of 226 to 228 °C. The result for `N#Cc1ccc(NC(=O)NC(CCC(=O)O)C(=O)O)cc1` (configuration not stated) reads 169 to 171 °C. In the case of `Cn1cc(SSc2cnn(C)c2)cn1` it was 111 to 113 °C; in that of `Cc1ccc(-c2nc3ccccc3[nH]2)s1`, 259 to 261 °C; in that of `CCCc1cc(=O)[nH]c(CCC)n1`, 69 to 71 °C. The result for `c1ccc(C2=NCCN2)nc1` reads 149 to 151 °C. The compound `O=C(O)c1cccc(-n2cccn2)n1` displayed a melting point of 184 to 186 °C. In turn, `CC(Cl)C(=O)Nc1ccccc1C(F)(F)F` (configuration not stated) gave a melting point of 92 to 94 °C. The result for `O=C(O)C1(c2ccc3c(c2)OCCO3)CCCC1` reads 165 to 167 °C; that for `CCOC(=O)c1nc2cc(Cl)ncn2n1`, 194 to 196 °C; that for `COC(=O)C(Cc1c[nH]cn1)NC(C)=O` (configuration not stated), 116 to 118 °C. In the case of `Cc1c(C(=O)O)sc2nc3n(c(=O)c12)CCC3` it was 281 to 283 °C; in that of `OC1CCNCc2ccccc21` (configuration not stated), 139 to 141 °C. `CC(C)n1nnc(C(=O)O)c1C(F)(F)F` yielded a melting point of 99 to 101 °C.

Regarding `Cc1ccc(-c2nonc2N)cc1`, the melting point is 139 to 141 °C.

The compound `C#CCNC(C)=O` gave a melting point of 79 to 81 °C. The result for `O=Cc1cc[nH]n1` reads 139 to 141 °C; that for `CCOC(=O)Cc1nc2cc(Cl)ccc2s1`, 79 to 81 °C. In the case of `O=c1[nH]c(CCl)nc2sc(-c3ccccc3)cc12` it was 286 to 288 °C. Compound `NC(=O)CCNc1ccccc1[N+](=O)[O-]` came in with a melting point of 136 to 138 °C. `Cc1c(C(=O)O)nnn1-c1ccc(OC(C)C)cc1` came in with a melting point of 159 to 161 °C. In the case of `O=C(O)CCc1ncc(-c2ccccc2Br)o1` it was 180 to 182 °C; in that of `Nc1nc2ccccc2n1CCCc1ccccc1`, 146 to 148 °C. Compound `Cc1nn(Cc2cccc(Cl)c2)cc1C(=O)O` registered a melting point of 167 to 169 °C. For the compound `O=C(O)CN1CCCOC1=O`, the melting point lay within 172 to 174 °C. The compound `NC(=O)COc1ccc(/C=C/C(=O)O)cc1` gave a melting point of 295 to 297 °C. The compound `CCN(CC)S(=O)(=O)c1ccc(Oc2ccc(C=O)cc2OC)c([N+](=O)[O-])c1` registered a melting point of 134 to 136 °C. The result for `FC(F)(F)c1cc(Cl)nc(-c2cccnc2)n1` reads 114 to 116 °C.

For `Nc1nnc(C23CC4CC(CC(C4)C2)C3)s1`, the melting point lay in the range of 197 to 199 °C. In the case of `O=C(CCl)Nc1ccccc1C(=O)O` it was 185 to 187 °C; in that of `CN1CCN(CCNCc2ccc(Br)cc2F)CC1`, 45 to 47 °C; in that of `Cc1ccccc1-c1noc(CC#N)n1`, 79 to 83 °C. With `NNC(=O)C(=O)NCc1ccc(Cl)cc1`, the melting point lay within 191 to 193 °C. The result for `C#CCNc1nccs1` reads 65 to 67 °C; that for `CS(=O)(=O)Nc1ccc(C(=O)CCl)cc1`, 155 to 158 °C; that for `Nc1cccc(CN2CCC(CO)CC2)c1`, 89 to 91 °C. Regarding `N#Cc1cc2c([nH]c1=O)CCC(c1ccccc1)C2` (configuration not stated), the melting point fell in the range of 279 to 281 °C. In the case of `Cc1cc(-n2cccc2)ccc1C(=O)O` it was 150 to 152 °C.

In turn, `Cc1n[nH]c(SCC(=O)O)n1` returned a melting point of 228 to 230 °C. In the case of `CC(C)(CCCc1ccccc1)C(=O)O` it was 48 to 50 °C. On to `O=C(O)Cc1cccc(OC(F)F)c1`, for which the melting point was in the range of 52 to 54 °C. `ON=Cc1ccc(OCc2ccncc2)cc1` had a melting point of 163 to 165 °C.

Compound `Nc1nc(=O)cc[nH]1` had a melting point of 268 to 272 °C. The result for `CC1CC(C)CN(S(=O)(=O)c2ccc(S(=O)(=O)Cl)cc2)C1` (configuration not stated) reads 153 to 155 °C. The result for `Cc1ccc2nc(-c3ccc(N=C=S)cc3)sc2c1` reads 243 to 245 °C. `CN(C)c1nc2sc(C(=O)O)cc2s1` displayed a melting point of 205 to 207 °C. The result for `CS(=O)(=O)CC1(CBr)CCOCC1` reads 97 to 99 °C; that for `Nc1ccc(Oc2ccc(C(F)(F)F)cn2)c(F)c1`, 90 to 92 °C. The result for `Cc1oc(C(N)=O)cc1-c1csc(N)n1` reads 224 to 226 °C; that for `Nc1cc(C(F)(F)F)ccc1-n1cncn1`, 119 to 121 °C; that for `Cc1cc(O)c(C=O)cc1C`, 64 to 66 °C.

With `Nc1nnc(-c2cccc(Cl)c2)[nH]1`, the melting point fell in the range of 219 to 221 °C.

Turning to `Cc1[nH]oc(=N)c1Br`, the melting point is 67 to 69 °C. `CNC(=S)NCc1ccco1`: the melting point was 74 to 76 °C. The result for `Cc1csc(NC(=O)C2CCCNC2)n1` (configuration not stated) reads 164 to 166 °C; that for `O=C(O)C1CCN(c2ccc(Cl)c(Cl)c2)C1=O` (configuration not stated), 165 to 167 °C.

As for `O=C(O)c1c[nH]nc1-c1ccccc1F`, the melting point lay within 288 to 290 °C. On to `Cc1cc(C(=O)CCl)ccc1F`, for which the melting point fell in the range of 33 to 35 °C. In turn, `N#CC(=O)c1ccc(Cl)cc1` showed a melting point of 41 to 43 °C.

The compound `COc1cccc(N2C(=O)NC(=O)C2=O)c1` came in with a melting point of 196 to 198 °C.

Compound `CCOC(=O)c1sc2nc(CCl)[nH]c(=O)c2c1C` returned a melting point of 190 to 192 °C. Turning to `CC(C)(N)c1noc(C(N)=O)n1`, the melting point fell in the range of 168 to 170 °C.

`Cc1ccc(N2CC(C(=O)O)CC2=O)c(F)c1` (configuration not stated) had a melting point of 112 to 114 °C. `Nc1cccc(C(=O)N2CCCC(CO)C2)c1` (configuration not stated) had a melting point of 115 to 117 °C. For the compound `Cc1ccc(NS(=O)(=O)c2cccc(C(=O)O)c2)c(C)c1`, the melting point fell in the range of 194 to 196 °C. The result for `NCCc1cccc(OCCCc2ccccc2)c1` reads 44 to 46 °C; that for `Cc1cccc(CNc2ccc3[nH]c(=O)[nH]c3c2)c1`, 216 to 218 °C; that for `COc1ccc(C(=O)CC(C)(C)C(=O)O)cc1`, 166 to 168 °C.

`CS(=O)(=O)OC1CCOC2(CCOCC2)C1` (configuration not stated) registered a melting point of 110 to 112 °C. The compound `COc1c([N+](=O)[O-])ccc(C=O)c1OC(F)F` yielded a melting point of 95 to 97 °C.

In turn, `Cc1cc(C(=O)O)c(N)c([N+](=O)[O-])c1` returned a melting point of 249 to 251 °C. The result for `CC(NCc1ccc(F)cc1)C(=O)O` (configuration not stated) reads 283 to 285 °C; that for `O=C(O)/C=C/c1ccc(OCc2cn3ccccc3n2)cc1`, 190 to 192 °C; that for `CNc1ccc(N)c(C(F)(F)F)c1`, 86 to 88 °C. In the case of `Cc1ccc(CNC(=O)c2c[nH]nc2N)cc1` it was 168 to 170 °C.

`CCC1CSC(Nc2ccc(Cl)c(Cl)c2)=N1` (configuration not stated) came in with a melting point of 107 to 109 °C. `CCOC(=O)N1CCN(S(=O)(=O)Cl)CC1` returned a melting point of 67 to 69 °C.

Turning to `Cc1c(N)cccc1C(N)=O`, the melting point fell in the range of 173 to 175 °C. On to `CC(C)(C)OC(=O)NNC(=O)C(F)(F)F`, for which the melting point lay within 119 to 121 °C. The result for `Cn1cc(Cl)cc1C(=O)NN` reads 168 to 170 °C. In turn, `NNc1ccc(S(=O)(=O)C(F)(F)F)cc1` displayed a melting point of 93 to 95 °C.

In turn, `Oc1cccc(CNC2CCC(O)CC2)c1` (configuration not stated) displayed a melting point of 180 to 182 °C. The result for `CCOC(=O)C(O)(CC#N)c1nccn1C` (configuration not stated) reads 117 to 119 °C; that for `COc1cc(C=O)cc(Cl)c1OC(F)F`, 75 to 77 °C; that for `OCc1cccc2cn[nH]c12`, 201 to 203 °C.

Regarding `Cc1cc(C)c(C)c(S(=O)(=O)N2CCC(C(=O)O)CC2)c1C`, the melting point was in the range of 107 to 109 °C.

`COc1ccc(-c2cc(N)ccc2OC(F)F)cc1`: the melting point lay in the range of 131 to 135 °C.

Consider `Cc1ccccc1C(C)CC(=O)O` (configuration not stated), for which the melting point lay in the range of 47 to 49 °C. The compound `O=C(O)C1(Sc2ccccc2)CCCC1` gave a melting point of 65 to 67 °C. The result for `O=Cc1ccc(-n2ccnc2)nc1` reads 139 to 141 °C; that for `Cc1ccccc1NC(=O)NN`, 141 to 143 °C; that for `COC(=O)c1ccccc1CS(=O)(=O)F`, 89 to 91 °C. `Cc1onc2c(=O)[nH]nc(-c3ccccc3)c12` yielded a melting point of 235 to 237 °C. In the case of `Nc1ccc2nc(N3CCCC3)sc2c1`, the melting point was in the range of 201 to 203 °C. In the case of `Cc1c(C(=O)O)cc(Cl)cc1S(=O)(=O)Cl` it was 109 to 111 °C; in that of `Cc1cccc(C2(C(=O)O)CCC2)c1`, 95 to 97 °C; in that of `Nc1cccc(C(=O)N2CCCCC2)c1`, 121 to 123 °C. Regarding `O=C(O)c1c(O)cc(Cl)cc1Cl`, the melting point lay in the range of 189 to 191 °C.

On to `C=CCN1C(=O)C(=O)c2ccccc21`, for which the melting point was in the range of 108 to 110 °C. In the case of `Cc1csc(NC2CC2)n1` it was 64 to 66 °C; in that of `Cc1c[nH]c(=O)n1-c1ccccc1[N+](=O)[O-]`, 209 to 211 °C; in that of `O=Cc1ccc(-c2nn(-c3ccccc3)cc2C=O)o1`, 146 to 148 °C.
